# Patent US7741020B2, “Methods for detecting Lp-PLA2 activity and inhibition of Lp-PLA2 activity” (Glaxo Group Limited, priority 2004, dated 2010)
# Several values for one entry are separate records, joined by “and”; a condition that tells them apart may be missing. Identical values can stand only once.
# What was measured:
# [1] = molecular target: T1, Lp-PLA2 (Homo sapiens, UniProt Q13093); test: Auto PAF AH assay (Azwell kit, Olympus Au640 analyzer); type: biochemical; conditions: plasma of individual human subjects
# T1 sequence (Q13093 22-441): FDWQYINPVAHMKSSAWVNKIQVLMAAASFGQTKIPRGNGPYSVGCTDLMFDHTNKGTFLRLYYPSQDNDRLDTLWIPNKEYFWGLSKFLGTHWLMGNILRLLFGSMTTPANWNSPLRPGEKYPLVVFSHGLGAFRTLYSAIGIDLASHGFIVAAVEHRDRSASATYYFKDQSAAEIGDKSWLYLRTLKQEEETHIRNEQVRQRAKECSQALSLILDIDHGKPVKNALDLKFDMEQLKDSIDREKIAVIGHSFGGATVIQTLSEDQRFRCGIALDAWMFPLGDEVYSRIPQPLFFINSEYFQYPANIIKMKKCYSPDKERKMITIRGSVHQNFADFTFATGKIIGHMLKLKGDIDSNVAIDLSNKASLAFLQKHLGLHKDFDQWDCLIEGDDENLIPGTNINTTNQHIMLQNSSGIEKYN
# Description: The Auto PAF AH assay kit, manufactured by Azwell (Osaka, Japan), is commercially available in the United States through Karlan Research Products Corporation (Santa Rosa, Calif.).
# Prepare the following reagents: • R1: Use this buffer solution as supplied in Azwell Auto PAF AH assay kit. Store at 4° C. Protect from light. • R2: Prepare the R2 working solution by mixing R2A and R2B (supplied in Azwell Auto PAF AH assay kit) in the proportion of 19:1, Store at 4° C. Protect from light. • 3. […] Briefly centrifuge to spin down fibrin clots/particles in the plasma. • 4. Place Sarstedt tubes containing plasma samples onto sample tubes that fit the instrument. Run plasma samples through the Au640 analyzer. After choosing the PAF AH assay program, the analytical procedure described below is performed automatically: • Test sample (2 μL)+R1 (240 μL), 37° C., 5 minutes [0-5 minutes] • Add R2 (80 μL), 37° C., 5 minutes [5-10 minutes] • Measure the absorbance at 410 nm and 480 nm [6-8 minutes] • Calculate PAF AH activity (IU/L) • 5.
# [2] = molecular target: T1, Lp-PLA2; test: High throughput radiometric assay for Lp-PLA2 activity (3H-PAF); type: biochemical; conditions: 50 mg, plasma of individual human subjects
# Description: (cat #6005162) Reagents • HEPES (4-(2-hydroxyethyl)-1-piperazineethane sulfonic acid) Sigma Chemical Co., St. Louis Mo. […] (Cat # E7889; 0.5 M) • ^3H-Platelet Activating Factor, 1-O-Hexadecyl-[acetyl-^3H(N)], (^3H-PAF)-NEN Life Science Products, Roxbury, Mass. (Cat # NET-910, supplied as an ethanol solution, typically 0.1 mCi/mL; 250 uCi) • C16-PAF, (1-hexadecyl-2-acetyl-sn-glycero-3-phosphocholine): Avanti Polar Lipids, Alabaster, Ala. […] (Cat # T9159) Assay Buffer • 100 mM Hepes, pH 7.4 • 150 mM NaCl • 5 mM EDTA • Store it at room temperature Procedures • 1. Prepare a ^3H-PAF working solution (for 100 reactions): • a) Aliquot 480 μl ^3H-PAF (10 μM=0.1 mCi/ml at 10.0 Ci/mmol) and 125.3 μl of [C16]PAF (5.0 mg/ml; MW: 524) to a tube; • b) Mix and air dry in the hood; • c) Resuspend the dried pellets in 12.0 ml of assay buffer giving working solutions of 100 μM PAF (i.e. ^3H-PAF at 0.4 μM and cold [C16]PAF at 99.6 μM); • 2. Aliquot 5 μL of assay buffer (for Total counts and Blanks; n=8) or plasma samples in duplicates into a 96-well plate; • 3. Equilibrate the plate to 21° C.; • 4. Add 100 μL of the ^3H-PAF solution to each well, mix and incubate the plate at 21° C. for 5 minutes; • 5. […]; • 6. Add 25 μL of ice-cold TCA solution (56%) to each well, mix and incubate the plate in a refrigerator for 15 minutes; • 7. Centrifuge the plate at 6,000 g for 15 minutes at 4° C.; • 8. […] Add 10 μL of ^3H-PAF working solution to 6 Total Counts wells; • 10. […] Cover the plate with a plate tape and vortex mix at max speed for 10 minutes; • 12. […] Count with a TopCount scintillation counter for 2 minutes each; and • 14.
smiles,measurement,setting,value
COCCN1CCC(N(Cc2ccc(-c3ccc(C(F)(F)F)cc3)cc2)C(=O)Cn2c(SCc3cccc(F)c3F)cc(=O)c3ccccc32)CC1 [Formula I],% Inhibition Auto PAF AH,"[1]; 50 mg, 0.5 hr after dosing",10.84% and 0.65% and −6.65% and 10.66% and 8.03%
same,Lp-PLA2 Activity Auto PAF AH,"[1]; 50 mg, 0.5 hr after dosing",456.50 nmol/min/mL and 308.00 nmol/min/mL and 393.00 nmol/min/mL and 272.50 nmol/min/mL and 647.00 nmol/min/mL
same,% Inhibition Auto PAF AH,"[1]; 50 mg, 1 hr after dosing",11.15% and 14.00% and 19.04%
same,Lp-PLA2 Activity Auto PAF AH,"[1]; 50 mg, 1 hr after dosing",271.00 nmol/min/mL and 605.00 nmol/min/mL and 242.00 nmol/min/mL and 340.50 nmol/min/mL
same,% Inhibition Auto PAF AH,"[1]; 50 mg, 2 hr after dosing",10.98% and 20.47% and 9.03%
same,Lp-PLA2 Activity Auto PAF AH,"[1]; 50 mg, 2 hr after dosing",271.50 nmol/min/mL and 559.50 nmol/min/mL and 282.00 nmol/min/mL and 348.00 nmol/min/mL
same,Lp-PLA2 Activity Auto PAF AH,"[1]; 50 mg, 3 hr after dosing",277.50 nmol/min/mL and 602.50 nmol/min/mL and 435.00 nmol/min/mL and 287.50 nmol/min/mL and 348.00 nmol/min/mL
same,% Inhibition Auto PAF AH,"[1]; 50 mg, 4 hr after dosing",15.90% and 10.52% and 0.32% and 8.14%
same,Lp-PLA2 Activity Auto PAF AH,"[1]; 50 mg, 4 hr after dosing",256.50 nmol/min/mL and 629.50 nmol/min/mL and 409.00 nmol/min/mL and 309.00 nmol/min/mL and 338.50 nmol/min/mL
same,% Inhibition Auto PAF AH,"[1]; 50 mg, 5 hr after dosing",10.33% and 7.39% and 24.80% and 9.84% and 8.68%
same,Lp-PLA2 Activity Auto PAF AH,"[1]; 50 mg, 5 hr after dosing",273.50 nmol/min/mL and 651.50 nmol/min/mL and 385.00 nmol/min/mL and 279.50 nmol/min/mL and 336.50 nmol/min/mL
same,% Inhibition Auto PAF AH,"[1]; 50 mg, 6 hr after dosing",10.33% and 8.74% and 24.12% and 11.80%
same,Lp-PLA2 Activity Auto PAF AH,"[1]; 50 mg, 6 hr after dosing",273.50 nmol/min/mL and 642.00 nmol/min/mL and 388.50 nmol/min/mL and 306.50 nmol/min/mL and 325.00 nmol/min/mL
same,% Inhibition Auto PAF AH,"[1]; 50 mg, 9 hr after dosing",6.23% and 18.76% and 12.99% and 6.61% and 15.33%
same,% Inhibition Auto PAF AH,"[1]; 50 mg, 12 hr after dosing",14.26% and 18.76% and −8.39%
same,Lp-PLA2 Activity Auto PAF AH,"[1]; 50 mg, 12 hr after dosing",261.50 nmol/min/mL and 409.50 nmol/min/mL and 336.00 nmol/min/mL and 307.00 nmol/min/mL
same,% Inhibition Auto PAF AH,"[1]; 120 mg, 0.5 hr after dosing",15.42% and 8.74% and 9.58% and 6.66%
same,% Inhibition Auto PAF AH,"[1]; 120 mg, 1 hr after dosing",11.34% and 7.73%
same,% Inhibition Auto PAF AH,"[1]; 120 mg, 2 hr after dosing",18.04% and 21.33% and 8.63% and 18.61% and 21.05%
same,% Inhibition Auto PAF AH,"[1]; 120 mg, 3 hr after dosing",12.42% and 16.24% and 5.90% and 14.65%
same,% Inhibition Auto PAF AH,"[1]; 120 mg, 5 hr after dosing",−1.63% and 5.62%
same,Lp-PLA2 Activity Auto PAF AH,"[1]; 120 mg, 5 hr after dosing",353.50 nmol/min/mL and 748.00 nmol/min/mL and 416.00 nmol/min/mL and 428.50 nmol/min/mL and 377.00 nmol/min/mL
same,% Inhibition Auto PAF AH,"[1]; 120 mg, 6 hr after dosing",13.73% and 2.99% and 6.47%
same,Lp-PLA2 Activity Auto PAF AH,"[1]; 120 mg, 6 hr after dosing",330.00 nmol/min/mL and 714.00 nmol/min/mL and 412.00 nmol/min/mL and 393.00 nmol/min/mL and 366.00 nmol/min/mL
same,% Inhibition Auto PAF AH,"[1]; 120 mg, 9 hr after dosing",11.63%
same,% Inhibition Auto PAF AH,"[1]; 120 mg, 12 hr after dosing",7.06% and −3.52%
same,% Inhibition Radiometric,[2]; 0.5 hr after dosing,22.34% and 17.17% and 25.59%
same,Lp-PLA2 Activity Radiometric,[2]; 0.5 hr after dosing,65.24 nmol/min/mL and 50.18 nmol/min/mL and 78.40 nmol/min/mL and 22.46 nmol/min/mL and 104.52 nmol/min/mL
same,% Inhibition Radiometric,[2]; 1 hr after dosing,77.76% and 60.11%
same,Lp-PLA2 Activity Radiometric,[2]; 1 hr after dosing,15.85 nmol/min/mL and 26.80 nmol/min/mL and 18.68 nmol/min/mL and 10.60 nmol/min/mL and 30.87 nmol/min/mL
same,Lp-PLA2 Activity Radiometric,[2]; 2 hr after dosing,10.00 nmol/min/mL
same,Lp-PLA2 Activity Radiometric,[2]; 4 hr after dosing,10.02 nmol/min/mL and 20.76 nmol/min/mL and 14.37 nmol/min/mL and 11.47 nmol/min/mL
